According to ChEMBL document CHEMBL1201862, “PubChem BioAssay data set” (2004):
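Cultured in 96-well plates, cells were exposed to test compound for 48 hours across five concentrations. At the GI50, growth is halved.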 Calls of active or inactive are those of the source. Rule as the data show it: active = GI50 up to about 1.1 µM and inactive = higher. Residues, ends and D or L forms follow the SMILES beside them. *: point of attachment. Boc = CC(C)(C)OC(=O)*

Tests used:
Assay in all cases: NCI tumour cell line growth inhibition, 48 h
[1] = test system: MDA-MB-435
[2] = test system: MDA-N
[3] = test system: Hs-578T
[4] = test system: T47D
[5] = test system: PC-3

Measured: GI50

COc1cccc(C(=O)C#Cc2cnc(OC)nc2OC)c1
inactive: [1] 1.86 µM | [2] 1.49 µM | [3] 7.66 µM | [4] 1.83 µM | [5] 1.37 µM

CC(C)(C)OC(=O)NC(Cc1ccccc1)C(=O)N[C@H]1c2ccsc2/C(=N/O)[C@H]1O (some centres not stated)
inactive: [1] > 100 µM | [2] > 100 µM | [4] > 100 µM | [5] > 100 µM

COc1ccc(/C=C2/SC(c3ccccc3)N(NC(=O)CCCCCCCCC(=O)NN3C(=O)/C(=C\c4ccc(OC)c(OC)c4)SC3c3ccccc3)C2=O)cc1OC (configuration not stated)
inactive: [1] 38.5 µM | [2] 35.2 µM | [4] 35.6 µM | [5] 76 µM

CC(C)C(=O)Nc1cc(C(F)(F)F)ccc1[N+](=O)[O-]
inactive: [1] > 100 µM | [2] > 100 µM | [3] > 100 µM | [4] 81.5 µM | [5] > 100 µM

COc1cc(OC)nc(-n2c(N)c(C(=O)O)c3ccc([N+](=O)[O-])cc3c2=O)n1
inactive: [1] > 100 µM | [2] > 100 µM | [3] > 100 µM | [4] > 100 µM | [5] > 100 µM

CC(C)=CC(O)C(C(O)CCC1(C)OCCO1)S(=O)(=O)c1ccccc1 (configuration not stated)
inactive: [1] > 100 µM | [2] > 100 µM | [4] > 100 µM | [5] > 100 µM

CCOC(=O)C(NC(=O)c1cccc(Cl)c1)(Nc1ccc(S(=O)(=O)Nc2cc(C)on2)cc1)C(F)(F)F (configuration not stated)
inactive: [1] > 100 µM | [2] > 100 µM | [3] > 100 µM | [4] > 100 µM | [5] > 100 µM

Cc1c(N2C(=O)/C(=C/c3ccc(Cl)cc3)N=C2c2ccccc2)c(=O)n(-c2ccccc2)n1C
inactive: [1] 19.5 µM | [2] 24.8 µM | [4] 29.6 µM | [5] 33.9 µM

O=c1sc(Nc2ccc3ccccc3c2Cl)nc2ccccc12
inactive: [1] 37.1 µM | [3] 57.1 µM | [4] > 100 µM | [5] > 100 µM

COC(CC1(/C=C/O[Si](C(C)C)(C(C)C)C(C)C)C(=O)N(COCC[Si](C)(C)C)c2ccccc21)OC (configuration not stated)
inactive: [1] 23.2 µM | [2] 24.9 µM | [3] > 100 µM | [4] > 100 µM | [5] 22.1 µM

COc1ccc(CC2(O)C3CC4CCC2C4C3)cc1 (configuration not stated)
inactive: [1] > 100 µM | [3] 85.3 µM | [5] 39.2 µM

COC(=O)C1OC2(CCCC3CC32)O[C@H]1C(=O)OC (some centres not stated)
inactive: [1] > 100 µM | [2] > 100 µM | [3] > 100 µM | [5] > 100 µM

C[C@]12CCC(=O)C=C1CC[C@@H]1[C@@H]2[C@@H](O)C[C@@]2(C)[C@H]1CC[C@]2(O)C(=O)COC(=O)C1CCCC1
inactive: [1] > 100 µM | [2] > 100 µM | [3] > 100 µM | [4] > 100 µM | [5] > 100 µM

O=C(Nc1ccn(C2CC(O)C(COC(c3ccccc3)(c3ccccc3)c3ccccc3)O2)c(=O)n1)c1ccccc1 (configuration not stated)
inactive: [1] 2.56 µM | [2] 1.96 µM | [3] 2.31 µM | [4] 4.46 µM | [5] 2.43 µM

CC(NC(=O)C(NC(=O)OC(C)(C)C)C(C)C)C(=O)N1CCCC1C(=O)NCC(=O)NC(C(=O)NCC(=O)O)C(C)C (configuration not stated) (Boc-VAPGVG-OH; configuration not given here)
inactive: [1] > 100 µM | [2] > 100 µM | [4] > 100 µM | [5] > 100 µM

CCCCCCCCCCCCOCCOCCOCCOCCOCCOCC(=O)NC(Cc1ccccc1)C(=O)Oc1ccc([N+](=O)[O-])cc1 (configuration not stated)
inactive: [1] 30.6 µM | [2] 27.7 µM | [3] 41.2 µM | [4] 40 µM | [5] 31 µM

O=c1cnnc2sc(=S)[nH]n12
inactive: [1] 24.7 µM | [2] 36.2 µM | [3] 2.22 µM | [5] 26.7 µM

O=C1c2ccccc2C(=O)c2c1sc1nc3ccccc3n21
inactive: [1] 2.11 µM | [2] 1.79 µM | [4] 1.83 µM | [5] 2.64 µM
active: [3] 0.0239 µM

Cc1ccc(/C=C2\Cc3c(C)cc(C)cc3C2=O)c(C(=O)O)c1
inactive: [1] 31.6 µM | [2] 89.3 µM | [3] 35.2 µM | [4] 82.2 µM | [5] 41.9 µM

COC(=O)[C@]1(C)CCCn2c(=O)n(-c3ccccc3)c(=O)n21
inactive: [1] > 100 µM | [3] > 100 µM | [4] > 100 µM | [5] > 100 µM

Fc1ccc(C(OCCN2CCN(CCCc3ccccc3)CC2)c2ccc(F)cc2)cc1
inactive: [1] 3.63 µM | [2] 4.06 µM | [3] 3.26 µM | [4] 4.9 µM | [5] 3.44 µM

CC(C)C1(O)C(=O)N(c2c(F)c(F)c(F)c(F)c2F)C(=S)N1CCSc1ccccc1 (configuration not stated)
inactive: [1] 18.2 µM | [2] 17.2 µM | [3] 22.6 µM | [4] 16.2 µM | [5] 15.7 µM

S=C(N/N=C/c1ccccn1)N1CCCCCC1
active: [1] 0.148 µM | [2] 0.0773 µM | [4] < 0.01 µM | [5] < 0.01 µM
inactive: [3] 11.5 µM

COC(=O)C1(OC(=O)Sc2ccccc2)CCN(C)CC1
inactive: [1] 13.8 µM | [2] 17.8 µM | [3] 21.1 µM | [4] 31.3 µM | [5] 7.57 µM

O=C1OC(=O)c2c1cc1cc3c(cc1c2-c1ccc2c(c1)OCO2)OCO3
inactive: [1] > 100 µM | [2] > 100 µM | [4] > 100 µM | [5] > 100 µM

C=C1CC[C@](C)(O)[C@@]2(C)CC[C@H]3C(=C(C)C)C(=O)C[C@]3(C)C[C@H]12
inactive: [1] 17.5 µM | [3] > 50 µM | [4] 26.5 µM | [5] 21.1 µM

C/C(=N\NC(=O)c1ccncc1)c1sc(-n2nc(-c3ccccc3)cc2-c2ccccc2)nc1C
inactive: [1] > 31.6 µM | [2] > 100 µM | [3] > 74.3 µM | [4] 18.5 µM | [5] > 31.6 µM

COc1ccc(-c2nc(-c3cnccn3)n(Cc3ccccc3)n2)cc1
inactive: [1] > 100 µM | [2] > 100 µM | [4] > 100 µM | [5] > 100 µM

O=c1ccn(C2OC(COC3CCCCO3)C(OC3CCCCO3)C2OC2CCCCO2)c(=O)n1-c1ccccc1 (configuration not stated)
inactive: [1] > 100 µM | [2] > 100 µM | [3] > 100 µM | [4] > 100 µM | [5] > 100 µM

COC(=O)c1cc2c3c(cc(N(C)C)c2[nH]1)N(C(=O)c1cc2cc(OC)c(OC)c(OC)c2[nH]1)CC3CCl (configuration not stated)
active: [1] 0.00298 µM | [2] 0.00427 µM | [4] < 0.0025 µM | [5] 0.00366 µM

N#CC(=S)Nc1ccc(F)cc1
inactive: [1] 38 µM | [2] 52.1 µM | [4] 24 µM | [5] 57.7 µM

CC(=O)c1cc2sc3ccccc3c2[nH]1
inactive: [1] > 100 µM | [2] > 100 µM | [4] > 100 µM | [5] > 100 µM

COc1ccc(C(=O)/C=C/S/C(=N/C#N)SC)cc1
inactive: [1] 21.5 µM | [3] 30.9 µM | [4] 20.7 µM | [5] 33.8 µM
